Assays:
Format in all cases: biochemical
SEX4 [1] = molecular target: T1, SEX4 (Arabidopsis thaliana, UniProt Q9FEB5); test: Phosphatase assay against pNPP, SEX4; conditions: for Inhibition model, pNPP assay, SEX4: determined by steady-state kinetic measurements
T1 construct: gift from Dr. Gentry's group, University of Kentucky College of Medicine
T1 sequence (Q9FEB5 90-379 limits assumed): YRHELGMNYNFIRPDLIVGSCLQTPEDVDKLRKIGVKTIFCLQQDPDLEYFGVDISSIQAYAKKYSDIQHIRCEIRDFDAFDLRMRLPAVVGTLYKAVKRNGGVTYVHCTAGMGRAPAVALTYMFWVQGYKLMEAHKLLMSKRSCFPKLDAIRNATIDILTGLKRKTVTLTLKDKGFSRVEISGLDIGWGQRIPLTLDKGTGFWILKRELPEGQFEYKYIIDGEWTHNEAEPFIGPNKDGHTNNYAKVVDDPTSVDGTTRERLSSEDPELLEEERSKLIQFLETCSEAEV
Experimental: (§1) The Arabidopsis thaliana SEX4 lacking the first 89 amino acids (Δ89-SEX4) and LSF2 proteins were kindly provided by Dr. Gentry’s group at the University of Kentucky College of Medicine (Lexington, KY, USA). para-nitrophenyl phosphate disodium salt hexahydrate (pNPP), Malachite green oxalate salt, ammonium molybdate tetrahydrate, and amylopectin from potato starch were purchased from Sigma-Aldrich. Absorbance was measured on a Beckman Coulter (Brea, CA, USA) DU 700 Series UV/Vis Spectrophotometer.
(§2) The phosphatase activity of SEX4 or LSF2 against pNPP in the presence or absence of an inhibitor was measured in this assay. The reaction (20 μL of total volume) of A. thaliana SEX4 or LSF2 was performed in the reaction mixture containing 1~2 μg SEX4 or LSF2, 1X assay buffer pH 5.5 (20 mM sodium acetate, 10 mM bis-Tris, 10 mM Tris, pH with HCl), 5 mM Dithiothreitol (DTT), and 50 mM pNPP (Sigma-Aldrich, Wien, Austria). It was incubated at 37 °C for 10 min with or without an inhibitor. The reaction was terminated by adding 80 μL of 0.25 N NaOH, and absorbance was measured at 410 nm.
(§3) The steady-state kinetic parameters were determined by varying substrate concentrations (pNPP 0.5–50 mM; amylopectin 5–45 μg) with or without an inhibitor. The data were fitted by nonlinear regression to the Michaelis–Menten equation using GraphPad PRISM 9.0 software to derive KM and kcat values. […] Inhibition constants (Ki) and inhibition types were determined by varying substrate concentrations in the absence of an inhibitor and in the presence of an inhibitor at the IC50 concentration.
(§4) The process of finding an inhibitor proceeded as follows (Figure 1). […] Then, reproduction experiments were performed with these compounds to select candidate substances. […] In order to assess any difference in selectivity between SEX4 and LSF2 for the selected candidates, the IC50 values of LSF2 were obtained through the pNPP and amylopectin assays and compared with those of SEX4.
(§5) The IC50 values were calculated directly from regression curves using GraphPad PRISM software. The IC50 graph was fitted to the Logistic Equation.

LSF2 [2] = molecular target: T2, LSF2 (Arabidopsis thaliana, UniProt Q9SRK5); test: Phosphatase assay against amylopectin, LSF2
T2 construct: gift from Dr. Gentry's group, University of Kentucky College of Medicine
T2 sequence (Q9SRK5 62-282): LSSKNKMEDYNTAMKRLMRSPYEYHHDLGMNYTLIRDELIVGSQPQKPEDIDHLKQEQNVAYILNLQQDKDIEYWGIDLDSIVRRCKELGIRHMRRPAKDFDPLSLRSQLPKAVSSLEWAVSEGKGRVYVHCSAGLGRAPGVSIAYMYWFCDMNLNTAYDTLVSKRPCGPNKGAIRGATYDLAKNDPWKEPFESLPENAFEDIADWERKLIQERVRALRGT
Experimental: as §1
(§6) The phosphatase activity of SEX4 or LSF2 toward amylopectin in the absence or presence of an inhibitor was measured in a reaction mixture with 2 μg SEX4 or LSF2 at 37 °C in 20 μL volume. The reaction mixture contained 100 mM sodium acetate, 50 mM bis-Tris, 50 mM Tris (pH 6.5), 10 mM DTT, and 45 μg amylopectin with or without an inhibitor. […] The release of free inorganic phosphate was determined by measuring the absorbance at 620 nm and the K2HPO4 standard curve.
as §3, §4

SEX4 [3] = molecular target: T1, SEX4; test: Phosphatase assay against amylopectin, SEX4; conditions: for Inhibition model, amylopectin assay, SEX4: determined by steady-state kinetic measurements; for Selectivity between SEX4 and LSF2: comparison of IC50 values for SEX4 and LSF2
Experimental: as §1, §6, §3, §4, §5

LSF2 [4] = molecular target: T2, LSF2; test: Phosphatase assay against pNPP, LSF2
Experimental: as §1, §2, §3, §4

[5] = pNPP 0.5–50 mM, inhibitor at IC50 concentration, average ± standard error of three measurements, read-out: Ki, pNPP assay, SEX4
[6] = not determined with the maximum concentration of candidate compounds, read-out: IC50, amylopectin assay, LSF2
[7] = 45 μg amylopectin, inhibitor 0–0.2 mM, average ± standard error of three measurements, read-out: IC50, amylopectin assay, SEX4
[8] = amylopectin 5–45 μg, inhibitor at IC50 concentration, average ± standard error of three measurements, read-out: Ki, amylopectin assay, SEX4
[9] = average ± standard error of three measurements, read-out: IC50, pNPP assay, LSF2
[10] = 50 mM pNPP, inhibitor 0–0.2 mM, average ± standard error of three measurements, read-out: IC50, pNPP assay, SEX4

Row | Compound | IC50 (SEX4 [1]) [µM] | IC50 for SEX4 compared with that of LSF2, pNPP assay (SEX4 [1]; SEX4 vs LSF2) | Inhibition model, pNPP assay, SEX4 (SEX4 [1]) | Ki (SEX4 [1]; [5]) [µM] | IC50 (LSF2 [2]; [6]) [µM] | IC50 (SEX4 [3]; [7]) [µM] | Ki (SEX4 [3]; [8]) [µM] | Inhibition model, amylopectin assay, SEX4 (SEX4 [3]) | IC50 (LSF2 [4]; [9]) [µM] | Ki (SEX4 [1]) [µM] | IC50 (LSF2 [2]) [µM] | IC50 (SEX4 [3]) [µM] | Ki (SEX4 [3]) [µM] | Selectivity between SEX4 and LSF2 (SEX4 [3]) | IC50 (LSF2 [4]) [µM] | IC50 (SEX4 [1]; [10]) [µM] | IC50 (SEX4 [1]; read-out: IC50, pNPP assay, SEX4) [µM] | Ki (SEX4 [1]; read-out: Ki, pNPP assay, SEX4) [µM] | IC50 (SEX4 [3]; read-out: IC50, amylopectin assay, SEX4) [µM] | Ki (SEX4 [3]; read-out: Ki, amylopectin assay, SEX4) [µM]
1 | CCCCCC/C=C\CCCCCCCc1cccc(O)c1C(=O)O [Compound F05, Ginkgolic acid] | 5.18 ± 0.014 | approximately four times lower | Uncompetitive | 6.87 ± 0.007 | > 50 | 21.1 ± 0.021 | 20.81 ± 0.021 | Uncompetitive | 21.26 ± 0.008 |  |  |  |  |  |  |  |  |  |  | 
2 | O=C1C=CC(=O)c2c(O)ccc(O)c21 [Compound F09, Naphthazarin] | 15.83 ± 0.018 |  | Mixed-model |  |  |  |  | Uncompetitive |  | 39.81 ± 0.026 | > 50 | 7.49 ± 0.016 | 16.42 ± 0.012 | selective for SEX4 | 23.97 ± 0.028 |  |  |  |  | 
3 | CC(C)=CCc1c(-c2ccc(O)cc2O)oc2c(C3C=C(C)CC(C(=O)c4ccc(O)cc4O)C3c3ccc(O)cc3O)c(O)cc(O)c2c1=O (stereo not shown) [Compound H08, Moracenin B] |  |  | Uncompetitive | 20.84 ± 0.023 | > 50 | 16.49 ± 0.051 | 31.12 ± 0.027 | Uncompetitive | 22.92 ± 0.025 |  |  |  |  |  |  | 18.69 ± 0.026 |  |  |  | 
4 | Cc1c(O)nc2[nH]c(=O)sc2c1C [Compound H03, Thiazolo[4,5-b]pyridin-2(3H)-one, 5-hydroxy-6,7-dimethyl] |  |  | Uncompetitive | 42.34 ± 0.037 |  | 13.05 ± 0.024 | 29.84 ± 0.025 | Competitive | 49.58 ± 0.047 |  |  |  |  |  |  | 39.58 ± 0.016 |  |  |  | 
5 | CCCc1c(O)nc2[nH]c(=O)sc2c1C [Compound D04, Thiazolo[4,5-b]pyridin-2(3H)-one, 5-hydroxy-7-methyl-6-propyl] |  |  | Uncompetitive | 25.41 ± 0.012 |  | 57.33 ± 0.34 | 28.31 ± 0.014 | Competitive | 44.82 ± 0.022 |  |  |  |  |  |  | 21.6 ± 0.008 |  |  |  | 
6 | O=C(O)c1cc(O)c2c(c1)[C@@H]([C@@H]1c3cc(C(=O)O)cc(O)c3C(=O)c3c(OC4OC(CO)C(O)C(O)C4O)cccc31)c1cccc(OC3OC(CO)C(O)C(O)C3O)c1C2=O (stereo partly shown) [Compound G11, Sennoside] |  |  | Uncompetitive | 33.87 ± 0.019 | > 50 | 9.72 ± 0.008 | 7.81 ± 0.005 | Competitive | 23.03 ± 0.029 |  |  |  |  | selective for SEX4 |  | 25.75 ± 0.017 |  |  |  | 
7 | O=C(OCC1OC(OC(=O)c2cc(O)c(O)c(O)c2)C(OC(=O)c2cc(O)c(O)c(O)c2)C(OC(=O)c2cc(O)c(O)c(O)c2)C1OC(=O)c1cc(O)c(O)c(O)c1)c1cc(O)c(O)c(O)c1 [Compound G07, Penta-O-gallolyl-β-D-glucose] |  |  |  |  | > 50 |  |  |  | 13.39 ± 0.036 |  |  |  |  |  |  |  | 30.91 ± 0.021 | 37.31 ± 0.026 | 38.61 ± 0.022 | 46.4 ± 0.032
